{"source": "patent US4218395A", "about": "“Ureylene naphthalene sulfonic acids” (American Cyanamid Company, priority 1978, dated 1980)", "key": {"complement system": {"system": "complement system", "conditions": "British Journal of Experimental Pathology, 33, 327-339 (1952); Clin. Exp. Immunol., 10, 127-138 (1972); cited from earlier work"}, "human serum complement [1]": {"system": "human serum complement", "conditions": "as judged by the reduction in total hemolytic complement activity, Pathologie Biologie, 25, 33-36 (1977); cited from earlier work"}, "human serum complement [2]": {"system": "human serum complement", "conditions": "as judged by the reduction in total hemolytic complement activity, Pathologie Biologie, 25, 33-36 (1977); cited from earlier work", "remark": "listed apart in the source"}, "[3]": {"system": "hereditary angioneurotic edema", "conditions": "The New England Journal of Medicine, 286, 808-812 (1972); cited from earlier work"}, "human C1": {"target": "T1, human C1 (Homo sapiens, UniProt P09871)", "T1 construct": "hemolytic test of fluid-phase C2 destruction in presence of C4", "T1 sequence (P09871 16-688)": "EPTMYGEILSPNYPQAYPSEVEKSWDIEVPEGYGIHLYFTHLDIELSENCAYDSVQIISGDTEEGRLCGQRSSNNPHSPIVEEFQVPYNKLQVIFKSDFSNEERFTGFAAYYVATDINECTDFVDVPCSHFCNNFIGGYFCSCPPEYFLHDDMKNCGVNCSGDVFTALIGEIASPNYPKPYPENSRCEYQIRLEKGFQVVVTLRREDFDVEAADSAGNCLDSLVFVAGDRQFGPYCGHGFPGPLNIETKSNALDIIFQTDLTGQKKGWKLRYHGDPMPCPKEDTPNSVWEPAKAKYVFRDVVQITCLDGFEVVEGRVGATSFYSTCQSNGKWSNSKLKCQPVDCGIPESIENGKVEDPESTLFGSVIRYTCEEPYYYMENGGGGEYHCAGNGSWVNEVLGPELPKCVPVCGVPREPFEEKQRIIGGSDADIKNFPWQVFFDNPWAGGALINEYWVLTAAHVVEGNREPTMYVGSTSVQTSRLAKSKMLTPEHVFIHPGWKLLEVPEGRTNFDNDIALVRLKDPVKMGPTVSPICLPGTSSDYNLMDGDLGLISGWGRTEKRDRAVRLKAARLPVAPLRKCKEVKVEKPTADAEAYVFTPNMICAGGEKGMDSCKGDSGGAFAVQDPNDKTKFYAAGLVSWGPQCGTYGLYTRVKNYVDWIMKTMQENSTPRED", "T1 sequence (P00736 18-705 partner)": "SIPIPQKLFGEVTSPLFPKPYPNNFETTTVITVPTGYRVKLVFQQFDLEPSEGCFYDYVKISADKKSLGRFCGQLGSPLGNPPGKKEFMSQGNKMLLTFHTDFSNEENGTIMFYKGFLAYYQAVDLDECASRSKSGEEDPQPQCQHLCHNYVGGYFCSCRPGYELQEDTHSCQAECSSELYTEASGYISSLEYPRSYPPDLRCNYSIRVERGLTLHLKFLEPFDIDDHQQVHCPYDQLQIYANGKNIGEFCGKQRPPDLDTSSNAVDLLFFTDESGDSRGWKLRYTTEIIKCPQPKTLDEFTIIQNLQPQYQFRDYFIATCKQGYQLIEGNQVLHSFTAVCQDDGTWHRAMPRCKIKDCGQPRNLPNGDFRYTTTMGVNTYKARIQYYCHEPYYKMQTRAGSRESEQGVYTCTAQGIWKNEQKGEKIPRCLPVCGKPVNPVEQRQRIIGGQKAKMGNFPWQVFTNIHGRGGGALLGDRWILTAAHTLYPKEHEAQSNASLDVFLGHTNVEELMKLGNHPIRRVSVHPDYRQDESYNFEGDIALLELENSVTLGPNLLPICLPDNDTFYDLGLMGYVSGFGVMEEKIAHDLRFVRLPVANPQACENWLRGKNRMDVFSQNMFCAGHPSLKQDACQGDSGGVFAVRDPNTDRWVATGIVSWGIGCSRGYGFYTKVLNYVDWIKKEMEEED", "T1 sequence (P02745 23-245 partner)": "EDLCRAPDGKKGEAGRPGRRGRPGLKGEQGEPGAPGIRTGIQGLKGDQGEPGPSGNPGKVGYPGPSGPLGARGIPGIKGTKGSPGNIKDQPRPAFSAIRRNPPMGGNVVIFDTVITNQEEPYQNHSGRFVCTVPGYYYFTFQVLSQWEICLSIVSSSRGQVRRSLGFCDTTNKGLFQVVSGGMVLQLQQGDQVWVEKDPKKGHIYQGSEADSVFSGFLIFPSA", "T1 sequence (P02746 28-253 partner)": "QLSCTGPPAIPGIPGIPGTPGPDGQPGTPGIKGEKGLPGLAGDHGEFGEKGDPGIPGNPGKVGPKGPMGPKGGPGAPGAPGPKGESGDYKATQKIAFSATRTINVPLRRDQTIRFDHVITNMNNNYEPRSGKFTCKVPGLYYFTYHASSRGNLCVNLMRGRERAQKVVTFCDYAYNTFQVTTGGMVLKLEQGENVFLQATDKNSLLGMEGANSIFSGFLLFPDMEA", "T1 sequence (P02747 29-245 partner)": "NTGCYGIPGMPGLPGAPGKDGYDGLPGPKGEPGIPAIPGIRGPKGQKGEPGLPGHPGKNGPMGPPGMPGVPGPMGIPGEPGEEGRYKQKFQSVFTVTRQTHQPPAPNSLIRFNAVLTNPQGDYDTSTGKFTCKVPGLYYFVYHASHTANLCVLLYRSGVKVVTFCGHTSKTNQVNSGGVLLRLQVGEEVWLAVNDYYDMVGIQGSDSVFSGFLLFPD", "test": "Test, Code 026 (C1 inhibitor)", "type": "biochemical", "conditions": "activity in wells, twofold serial dilution assay; higher well number indicates higher activity", "source_text": "(§1) An active inhibitor protects C2 from C1 and C4; (ii) Test, Code 035 (C3-C9 inhibitor)-This test determines the ability of the late components of human complement (C3-C9) to lyse EAC 142 in the presence of appropriate dilutions of the test compound. An active inhibitor protects EAC 142 from lysis by human C3-C9; (iii) Test, Code 036 (C-Shunt inhibitor)--In this test human erythrocytes rendered fragile are lysed in autologous serum via the shunt pathway activated by cobra venom factor in the presence of appropriate dilutions of the test compound. Inhibition of the shunt pathway results in failure of lysis; (iv) Forssman Vasculitis Test--Here, the well known complement dependent lesion, Forssman vasculitis, is produced in guinea pigs by intradermal injection of rabbit anti-Forssman antiserum. The lesion is measured in terms of diameter, edema and hemorrhage and the extent to which a combined index of these is inhibited by prior intraperitoneal injection of the test compound at 200 mg/kg is then reported, unless otherwise stated; (v) Forssman Shock Test--Lethal shock is produced in guinea pigs by an i.v. injection of anti-Forssman antiserum and the harmonic mean death time of treated guinea pigs is compared with that of simultaneous controls; (vi) Complement Level Reduction Test--In this test, the above dosed guinea pigs, or others, are bled for serum and the complement level is determined in undiluted serum by the capillary tube method of U.S. Pat. No. 3,876,376 and compared to undosed control guinea pigs; and (vii) Cap 50 Test--Here, appropriate amounts of the test compound are added to a pool of guinea pig serum in vitro, after which the undiluted serum capillary tube assay referred to above is run. The concentration of compound inhibiting 50% is reported.\n(§2) With reference to Table I, guinea pigs weighing about 300 g were dosed intravenously (i.v.) or intraperitoneally (i.p.) with 200 mg/kg of the test compound dissolved in saline and adjusted to pH 7-8. […] Percent inhibition was calculated by comparison with simultaneous controls. […]"}, "[4]": {"system": "late components of human complement (C3-C9)", "test": "Test, Code 035 (C3-C9 inhibitor): lysis of EAC 142", "type": "cell-based", "conditions": "activity in wells, twofold serial dilution assay; higher well number indicates higher activity", "source_text": "as §1, §2"}, "shunt pathway": {"system": "shunt pathway", "test": "Test, Code 036 (C-Shunt inhibitor): lysis of human erythrocytes via shunt pathway activated by cobra venom factor", "type": "cell-based", "conditions": "activity in wells, twofold serial dilution assay; higher well number indicates higher activity", "source_text": "as §1, §2"}, "whole complement": {"system": "whole complement", "test": "In vivo complement inhibition in dosed guinea pigs (whole complement, capillary tube assay)", "conditions": "i.p., 200 mg/kg", "source_text": "as §1\nWith reference to Table I, guinea pigs weighing about 300 g were dosed intravenously (i.v.) or intraperitoneally (i.p.) with 200 mg/kg of the test compound dissolved in saline and adjusted to pH 7-8. One hour after dosing, the guinea pigs were decapitated, blood was collected and the serum separated. The serum was tested for whole complement using the capillary tube assay. Percent inhibition was calculated by comparison with simultaneous controls. The results appear in Table I together with results of tests, code 026, 035, 036, Cap 50, % inhibition and Forssman shock."}}, "note": "Counter-ions that a name gives are not always drawn."}
{"compound": "Nc1ccc2cc(S(=O)(=O)O)cc(O)c2c1N=Nc1ccc(NC(=O)Nc2ccc(N=Nc3c(N)ccc4cc(S(=O)(=O)O)cc(O)c34)c(S(=O)(=O)O)c2)cc1S(=O)(=O)O", "note": "[chlorazol fast pink, 3,3'-ureylenebis-[6-(2-amino-8-hydroxy-6-sulfo-1-naphthylazo)]benzenesulfonic acid, tetrasodium salt]", "values": [{"measurement": "effect on the complement system", "setting": "complement system", "value": "anticomplementary effect"}]}
{"compound": "pentosan-poly-sulfoester", "values": [{"measurement": "anticomplementary activity on human serum in vitro", "setting": "human serum complement [1]", "value": "anticomplementary activity"}, {"measurement": "anticomplementary activity on human serum in vivo", "setting": "human serum complement [2]", "value": "anticomplementary activity"}]}
{"compound": "heparin", "values": [{"measurement": "effect on the complement system", "setting": "complement system", "value": "anticomplementary effect"}]}
{"compound": "Cc1ccc(C(=O)Nc2ccc(S(=O)(=O)O)c3cc(S(=O)(=O)O)cc(S(=O)(=O)O)c23)cc1NC(=O)c1cccc(NC(=O)Nc2cccc(C(=O)Nc3cc(C(=O)Nc4ccc(S(=O)(=O)O)c5cc(S(=O)(=O)O)cc(S(=O)(=O)O)c45)ccc3C)c2)c1", "note": "[Suramin]", "values": [{"measurement": "effect on the complement system", "setting": "complement system", "value": "competitive inhibitor of the complement system"}, {"measurement": "treatment of hereditary angioneurotic edema", "setting": "[3]", "value": "used with success"}]}
{"compound": "Cc1ccc(C(=O)Nc2ccc(S(=O)(=O)O)c3cc(S(=O)(=O)O)cc(S(=O)(=O)O)c23)cc1NC(=O)c1cc(NC(=O)Nc2cc(C(=O)Nc3cc(C(=O)Nc4ccc(S(=O)(=O)O)c5cc(S(=O)(=O)O)cc(S(=O)(=O)O)c45)ccc3C)cc(C(=O)Nc3cc(C(=O)Nc4ccc(S(=O)(=O)O)c5cc(S(=O)(=O)O)cc(S(=O)(=O)O)c45)ccc3C)c2)cc(C(=O)Nc2cc(C(=O)Nc3ccc(S(=O)(=O)O)c4cc(S(=O)(=O)O)cc(S(=O)(=O)O)c34)ccc2C)c1", "note": "[8,8',8\",8'\"-{Ureylenebis{s-phenenylbis[carbonylimino(4-methyl-3,1-phenylene)carbonylimino]}}tetra-1,3,5-naphthalenetrisulfonic acid dodecasodium salt]", "values": [{"measurement": "C1 026* Wells", "setting": "human C1", "value": "+6 Wells"}, {"measurement": "C-Late 035* Wells", "setting": "[4]", "value": "+3 Wells"}, {"measurement": "Shunt Inhibition 036* Wells", "setting": "shunt pathway", "value": "+4 Wells"}, {"measurement": "In Vivo Activity (Guinea Pig) % Inhibition, Intraperitoneal, 30 minutes", "setting": "whole complement", "value": -62, "unit": "%"}, {"measurement": "In Vivo Activity (Guinea Pig) % Inhibition, Intraperitoneal, 60 minutes", "setting": "whole complement", "value": -84, "unit": "%"}, {"measurement": "In Vivo Activity (Guinea Pig) % Inhibition, Intraperitoneal, 120 minutes", "setting": "whole complement", "value": -95, "unit": "%"}]}
{"compound": "NCCCCCC(=O)O", "note": "[epsilon-aminocaproic acid]", "values": [{"measurement": "treatment of hereditary angioneurotic edema", "setting": "[3]", "value": "used with success"}]}
{"compound": "Nc1cc(C(=O)Nc2cc(C(=O)O)cc(C(=O)Nc3ccc(S(=O)(=O)O)c4cc(S(=O)(=O)O)cc(S(=O)(=O)O)c34)c2)cc(C(=O)Nc2cc(C(=O)O)cc(C(=O)Nc3ccc(S(=O)(=O)O)c4cc(S(=O)(=O)O)cc(S(=O)(=O)O)c34)c2)c1", "note": "[3,3'-[5-Amino-m-phenylenebis(carbonylimino)]bis{5-[4,6,8-trisulfo-1-naphthyl)carbamoyl]}benzoic acid hexasodium salt]", "values": [{"measurement": "C1 026* Wells", "setting": "human C1", "value": "+4 Wells"}, {"measurement": "C-Late 035* Wells", "setting": "[4]", "value": "+2 Wells"}, {"measurement": "Shunt Inhibition 036* Wells", "setting": "shunt pathway", "value": "+2 Wells"}, {"measurement": "In Vivo Activity (Guinea Pig) % Inhibition, Intraperitoneal, 30 minutes", "setting": "whole complement", "value": -40, "unit": "%"}, {"measurement": "In Vivo Activity (Guinea Pig) % Inhibition, Intraperitoneal, 60 minutes", "setting": "whole complement", "value": -61, "unit": "%"}, {"measurement": "In Vivo Activity (Guinea Pig) % Inhibition, Intraperitoneal, 120 minutes", "setting": "whole complement", "value": -61, "unit": "%"}]}
{"compound": "NC[C@H]1CC[C@H](C(=O)O)CC1", "note": "[tranexamic acid]", "values": [{"measurement": "treatment of hereditary angioneurotic edema", "setting": "[3]", "value": "used with success"}]}
{"compound": "O=C(Nc1cc(C(=O)Nc2cc(C(=O)O)cc(C(=O)Nc3ccc(S(=O)(=O)O)c4cc(S(=O)(=O)O)cc(S(=O)(=O)O)c34)c2)cc(C(=O)Nc2cc(C(=O)O)cc(C(=O)Nc3ccc(S(=O)(=O)O)c4cc(S(=O)(=O)O)cc(S(=O)(=O)O)c34)c2)c1)Nc1cc(C(=O)Nc2cc(C(=O)O)cc(C(=O)Nc3ccc(S(=O)(=O)O)c4cc(S(=O)(=O)O)cc(S(=O)(=O)O)c34)c2)cc(C(=O)Nc2cc(C(=O)O)cc(C(=O)Nc3ccc(S(=O)(=O)O)c4cc(S(=O)(=O)O)cc(S(=O)(=O)O)c34)c2)c1", "note": "[3,3',3\",3'\"-{Ureylenebis[s-phenenylbis(carbonylimino]}tetrakis[5-(4,6,8-trisulfo-1-naphthyl)carbamoyl]benzoic acid dodecasodium salt]", "values": [{"measurement": "C1 026* Wells", "setting": "human C1", "value": "+7 Wells"}, {"measurement": "C-Late 035* Wells", "setting": "[4]", "value": "+2 Wells"}, {"measurement": "Shunt Inhibition 036* Wells", "setting": "shunt pathway", "value": "+5 Wells"}, {"measurement": "In Vivo Activity (Guinea Pig) % Inhibition, Intraperitoneal, 30 minutes", "setting": "whole complement", "value": -90, "unit": "%"}, {"measurement": "In Vivo Activity (Guinea Pig) % Inhibition, Intraperitoneal, 60 minutes", "setting": "whole complement", "value": -94, "unit": "%"}, {"measurement": "In Vivo Activity (Guinea Pig) % Inhibition, Intraperitoneal, 120 minutes", "setting": "whole complement", "value": -89, "unit": "%"}]}
